Measured values reported in patent publication US20130337564A1, “Treatment of Pluripotent Cells” (Janssen Biotech, Inc., priority 2012, published 2013).
“And” between values parts separate entries of the source, which are not always exact repeats. Equal values may be shown once.

Assays:
Format in all cases: cell-based
[1] = test system: Sox17 expression in human embryonic stem cells (H9 line); test: High content screening assay: Sox17 protein expression (differentiation); conditions: for SOX-17 Expression Fold over Wnt 3a/AA control: total intensity normalised to Wnt 3a/AA control
Procedure: (§1) Maintenance of human embryonic stem cells (H9 line) was conducted as described in Example 1. Colonies of cells were maintained in an undifferentiated, pluripotent state with passage on average every four days. Passage was performed by exposing cell cultures to a solution of collagenase (1 mg/ml; Sigma-Aldrich) for 10 to 30 minutes at 37° C. followed by gentle scraping with a pipette tip to recover cell clusters. Clusters were allowed to sediment by gravity, followed by washing to remove residual collagenase. Cell clusters were split at a 1:3 ratio for routine maintenance culture or a 1:1 ratio for immediate assay. The human embryonic stem cell lines used were maintained at passage numbers less than passage 50 and routinely evaluated for normal karyotypic phenotype and absence of mycoplasma contamination.
(§2) Cell clusters used in the assay were evenly resuspended in normal culture medium and plated onto MATRIGEL-coated 96-well Packard VIEWPLATES (PerkinElmer) in volumes of 100 μA/well. MEF conditioned medium supplemented with 8 ng/ml bFGF was used for initial plating and recovery. Daily feeding was conducted by aspirating spent culture medium from each well and replacing with an equal volume of fresh medium. Plates were maintained at 37° C., 5% CO2 in a humidified box throughout the duration of assay.
(§3) Screening was conducted using test compounds from a proprietary library of small molecules selected for their ability to inhibit GSK-3B enzyme activity. Compounds from this library were made available as 1 mM stocks, in a 96-well plate format in 50 mM HEPES, 30% DMSO. Screening compounds were tested in triplicate or duplicate sets. Primary screening assays were initiated by aspirating culture medium from each well followed by three washes in PBS to remove residual growth factors and serum. Test volumes of 80 to 100 μl per well were added back containing DMEM:F12 base medium (Invitrogen) supplemented with 0.5% FCS (HyClone) and 100 ng/ml activin A (R&D Biosystems) plus 10 μM test compound. Positive control wells contained the same base medium, substituting 10-20 ng/ml Wnt3a (R&D Biosystems) for the test compound. Negative control wells contained base medium with 0.5% FCS and activin A alone (AA only) or alternatively, 0.5% FCS without activin A or Wnt3a (no treatment). Wells were aspirated and fed again with identical solutions on day 2 of assay. On days 3 and 4, all assay wells were aspirated and converted to DMEM:F12 supplemented with 2% FCS and 100 ng/ml activin A (without test compound or Wnt3a); parallel negative control wells were maintained in DMEM:F12 base medium with 2% FCS and activin A (AA only) or alternatively, 2% FCS without activin A (no treatment).
(§4) At the end of culture, cells in 96-well plates were fixed with 4% paraformaldehyde at room temperature for 20 minutes, washed three times with PBS, and then permeabilized with 0.5% Triton X-100 for 20 minutes at room temperature. Alternatively, cells were fixed with ice cold 70% ethanol overnight at −20° C., washed three times with PBS, and then permeabilized with Triton X-100 for 5 minutes at 4° C. After fixing and permeabilizing, cells were washed again three times with PBS and then blocked with 4% chicken serum (Invitrogen) in PBS for 30 minutes at room temperature. Primary antibodies (goat anti-human Sox17 and goat anti-human HNF-3beta; R&D Systems) were diluted 1:100 in 4% chicken serum and added to cells for one hour at room temperature. Alexa Fluor 488 conjugated secondary antibody (chicken anti-goat IgG; Molecular Probes) was diluted 1:200 in PBS and added after washing the cells three times with PBS. To counterstain nuclei, 5 mM Draq5 (Alexis Biochemicals) was added for five minutes at room temperature. Cells were washed once with PBS and left in […] PBS for imaging.
(§5) Cells were imaged using an IN Cell Analyzer 1000 (GE Healthcare) utilizing the 51008bs dichroic for cells stained with Draq5 and Alexa Fluor 488. […]

[2] = test system: human embryonic stem cells (H9 line); test: High content screening assay: cell number (proliferative response)
Procedure: as §1, §2, §3, §4, §5

[3] = test system: cells expressing pluripotency markers derived from human embryonic stem cells; test: MTS viability (toxicity) assay of cells expressing pluripotency markers; design: Raw data (duplicate), first replicate / Average: unit not given here; conditions: for % Control / viability at 10 µM: viability of cells expressing pluripotency markers, relative to control; for viability at 10 µM: Homo sapiens, Embryonic stem cell
Procedure: Derivation and maintenance of cells expressing pluripotency makers was conducted as has been described in Example 2. Cells were grown in DMEM:F12 supplemented with 2% FCS (Invitrogen), 100 ng/ml Activin A, 20 ng/ml Wnt-3a, and 50 ng/ml IGF (R&D Biosystems). Cells were seeded at a density of 10,000 cells/cm^2 on Falcon polystyrene flasks and grown in monolayer culture at 37° C., 5% CO2, low oxygen. After reaching 60-70% confluence, cells were passed by washing the monolayer with PBS and incubating with TrypLE (Invitrogen) for 3-5 minutes to allow detachment and single cell dispersal.
Screening was conducted using test compounds from a proprietary library of small molecules selected for their ability to inhibit GSK-3B enzyme activity. Compounds from this library were made available as 1 mM stocks, in a 96-well plate format in 50 mM HEPES, 30% DMSO. For assay, cells expressing pluripotency markers were washed, counted, and plated in normal culture medium at a seeding density of 20,000 cells per well in 96-well clear-bottom, dark-well plates (Costar). This seeding density was previously determined to yield optimal monolayer formation in overnight culture. On the following day, culture medium was removed, cell monolayers were rinsed three times with PBS, and test compounds were added to the wells in 80 μl aliquots, each diluted into assay medium at a final assay concentration of 10 μM. On day 2 of the assay, medium was removed from each well and replaced with a fresh aliquot of test compounds diluted into assay medium. Assay medium on days 1 and 2 of culture consisted of DMEM:F12 supplemented with 0.5% FCS and 100 ng/ml Activin A. On days 3 and 4 of culture, medium was removed from each well and replaced with DMEM:F12 supplemented with 2% FCS and 100 ng/ml Activin A (no test compound). On day 4 of assay, 15 μl of MTS (Promega) was added to each well and plates were incubated at 37° C. for 1.5 to 4 hours prior to reading optical density at 490 nm on a SpectraMax (Molecular Devices) instrument. Statistical measures consisting of mean, standard deviation, and coefficient of variation were calculated for each duplicate set. Toxicity was calculated for each test well relative to a positive control (wells treated with Activin A and Wnt3a on days 1 and 2 of culture).
A larger proportion of the compounds have minimal or no measurable toxicity in this cell-based assay.
A small panel of select compounds was repeat tested over a narrow dose titration range, again using cells expressing pluripotency markers in a similar assay as described above.

[4] = test system: HNF-3beta expression in human embryonic stem cells (H9 line); test: High content screening assay: HNF-3beta protein expression (differentiation); conditions: for HNF-3b Expression Fold over Wnt 3a/AA control: total intensity normalised to Wnt 3a/AA control
Procedure: as §1, §2, §3, §4, §5

[5] = test system: human embryonic stem cells (H9 or H1 lines); test: Plate reader (MTS) proliferation assay; conditions: plate reader raw signal, mean of replicate wells; proliferation of human embryonic stem cells
Procedure: Maintenance of human embryonic stem cells (H9 or H1 lines) was conducted as described in Example 1. Colonies of cells were maintained in an undifferentiated, pluripotent state with passage on average every four days. Passage was performed by exposing cell cultures to a solution of collagenase (1 mg/ml; Sigma-Aldrich) for 10 to 30 minutes at 37° C. followed by gentle scraping with a pipette tip to recover cell clusters. Clusters were allowed to sediment and washed to remove residual collagenase. Cell clusters were split at a ratio of 1:3 monolayer area for routine culture or a 1:1 ratio for immediate assay. The human embryonis stem cell lines used for these examples were maintained at passage numbers less than 50 and routinely evaluated for normal karyotypic phenotype as well as absence of mycoplasm contamination.
as §2, with “in” for “in the”, “into” for “onto”, “μl/well.” for “μA/well.”, “bFGF)” for “bFGF”, “C.” for “C., 5% CO2”, “box, 5% CO2” for “box”
Primary screening assays were initiated by aspirating culture medium from each well followed by three washes in PBS to remove residual growth factors and serum. Test volumes of 80-100 μl per well were added back containing DMEM:F12 base medium (Invitrogen) supplemented with 0.5% FCS (HyClone) and 100 ng/ml activin A (R&D Biosystems) and 10 μM test compound. Positive control wells contained the same medium substituting 10-20 ng/ml Wnt3a (R&D Biosystems). Negative control wells contained base medium with 0.5% FCS without activin A or Wnt3a. Screening compounds were tested in triplicate. Wells were aspirated and fed again with identical solutions on day 2 of the assay. On days 3 and 4, all assay wells were aspirated and converted to DMEM:F 12 supplemented with 2% FCS and 100 ng/ml activin A with the exception of negative control wells which were maintained in DMEM:F12 base medium with 2% FCS.
On day 4 of assay, 15-20 μl of MTS (Promega) was added to each well and plates were incubated at 37° C. for 1.5 to 4 hours. Densitometric readings at OD490 were determined using a Molecular Devices spectrophotometer plate reader. Average readings for replicate sets were calculated along with standard deviation and coefficient of variation. Experimental wells were compared to the Activin A/Wnt3a positive control to calculate a percent control value as a measure of proliferation.
Strong hits are defined as greater than or equal to 120% of control values; moderate hits are defined as falling within the interval of 60-120% of control values. A significant number of compounds induce a proliferative response in this assay.

[6] = 10 μM test compound with 100 ng/ml activin A on days 1-2, H9, total intensity by IN Cell Analyzer, strong and moderate hits
[7] = cell number in the wells analysed for HNF-3b expression
[8] = cell number in the wells analysed for HNF-3b expression, normalised to Wnt 3a/AA control
[9] = cell number in the wells analysed for SOX-17 expression
[10] = cell number in the wells analysed for SOX-17 expression, normalised to Wnt 3a/AA control
[11] = MTS viability assay raw reading, replicate 1
[12] = MTS viability assay raw reading, replicate 2
[13] = average of duplicate MTS raw readings

## O=C1NC(=O)C2=C1c1cn(c3ncccc13)CCOCCOCCOCCn1cc2c2cccnc21 [Compound 2, 6,7,9,10,12,13,15,16-Octahydro-23H-5,26:17,22-di(metheno)dipyrido[2,3-k:3′,2′-q]pyrrolo[3,4-n][1,4,7,10,19]trioxadiazacyclohenicosine-23,25(24H)-dione]
[1]; [6]
  SOX17 Expression, Fold over Wnt 3a/AA control: 0.7921 Fold over Wnt 3a/AA control
[1]
  SOX-17 Expression Total Intensity: 296920000
  SOX-17 Expression Fold over Wnt 3a/AA control: 0.7921 fold
[2]; 10 μM test compound with 100 ng/ml activin A on days 1-2, H9, total cell number by IN Cell Analyzer, strong and moderate hits
  Proliferative Response Fold over Wnt 3a/AA control: 1.3757 Fold over Wnt 3a/AA control and 1.1246 Fold over Wnt 3a/AA control
[2]; [7]
  Proliferative Response Total cells: 5679
[2]; [8]
  Proliferative Response Fold over Wnt 3a/AA control: 1.125 fold
[2]; [9]
  Proliferative Response Total cells: 10963
[2]; [10]
  Proliferative Response Fold over Wnt 3a/AA control: 1.376 fold
[3]; [11]
  Raw data (duplicate), first replicate: 0.785
[3]; [12]
  Raw data (duplicate), second replicate: 0.790
[3]; [13]
  Average: 0.788
[3]
  % Control: 94.0%
[4]; [6]
  HNF3β Expression, Fold over Wnt 3a/AA control: 1.0087 Fold over Wnt 3a/AA control
[4]
  HNF-3b Expression Total Intensity: 463525000
  HNF-3b Expression Fold over Wnt 3a/AA control: 1.0087 fold

## CN1CCCn2cc(c3ccccc32)C2=C(C(=O)NC2=O)c2cn(c3ccccc23)CCOCCOCC1 [Compound 3, 14-Methyl-6,7,9,10,12,13,14,15,16,17-decahydro-24H-5,27:18,23-di(metheno)dibenzo[l,r]pyrrolo[3,4-o][1,4,7,11,20]dioxatriazacyclodocosine-24,26(25H)-dione]
[1]
  SOX-17 Expression Total Intensity: 162790000
  SOX-17 Expression Fold over Wnt 3a/AA control: 0.4343 fold
[2]; [7]
  Proliferative Response Total cells: 2184
[2]; [8]
  Proliferative Response Fold over Wnt 3a/AA control: 0.4324 fold
[2]; [9]
  Proliferative Response Total cells: 1766
[2]; [10]
  Proliferative Response Fold over Wnt 3a/AA control: 0.2216 fold
[3]; [11]
  Raw data (duplicate), first replicate: 0.161
[3]; [12]
  Raw data (duplicate), second replicate: 0.169
[3]; [13]
  Average: 0.165
[3]
  % Control: 6.9%
[4]
  HNF-3b Expression Total Intensity: 189875000
  HNF-3b Expression Fold over Wnt 3a/AA control: 0.4132 fold

## NCCCn1nc(C2=C(c3cn(-c4csc5ccccc45)c4ccccc34)C(=O)NC2=O)c2ccccc21 [Compound 4]
[1]; Homo sapiens, Embryonic stem cell, 10 μM test compound with 100 ng/ml activin A on days 1-2, H9, total intensity by IN Cell Analyzer, strong and moderate hits, read-out: SOX17 Expression, Fold over Wnt 3a/AA control
  fold induction at 10 µM: 0.616
[1]
  SOX-17 Expression Total Intensity: 230965000
[2]; [7]
  Proliferative Response Total cells: 2776
[2]; [9]
  Proliferative Response Total cells: 2914
[3]
  viability at 10 µM: 2.6%
[3]; [11]
  Raw data (duplicate), first replicate: 0.132
[3]; [12]
  Raw data (duplicate), second replicate: 0.137
[3]; [13]
  Average: 0.134
[4]
  HNF-3b Expression Total Intensity: 125125000

## O=C1NC(=O)C(c2nn(CCCO)c3ccccc23)=C1c1cn(-c2ccc3ccccc3c2)c2ncccc12 [Compound 19, 3-[1-(3-Hydroxypropyl)-1H-indazol-3-yl]-4-(1-naphthalen-2-yl-1H-pyrrolo[2,3-b]pyridin-3-yl)-1H-pyrrole-2,5-dione]
[3]
  viability at 10 µM: 85.2%
[4]
  HNF-3b Expression Total Intensity: 0

## O=C1NC(=O)C(c2cn(CCCO)c3ncccc23)=C1c1cc[nH]c1 [Compound 242, 4-[1-(3-Hydroxypropyl)-1H-pyrrolo[2,3-b]pyridin-3-yl]-1H,1′H-3,3′-bipyrrole-2,5-dione]
[5]
  Average (of Raw Data): 0.1152
[3]
  viability at 10 µM: 71%
[3]; MTS viability readout, average of duplicate raw data
  Average: 0.601
[3]; MTS viability readout, raw value of replicate 1
  Raw data (duplicate), first replicate: 0.590
[3]; MTS viability readout, raw value of replicate 2
  Raw data (duplicate), second replicate: 0.613
